These results are taken from ChEMBL document CHEMBL3769303, “Discovery of membrane active benzimidazole quinolones-based topoisomerase inhibitors as potential DNA-binding antimicrobial agents” (Eur J Med Chem, 2016).

In brackets after ≈: the same amount, converted by molar mass.

One test relates to Salmonella enterica. The experiment in a line: Antibacterial activity against Salmonella enterica ATCC 14028 by micro broth dilution method.
Conditions: not given
It counts as functional.
`O=C(O)c1cn(C2CC2)c2cc(N3CCN(Cc4nc5ccccc5n4Cc4ccc([N+](=O)[O-])cc4)CC3)c(F)cc2c1=O`: the minimum inhibitory concentration (MIC) was determined as 16 µg/mL (≈ 26.8 µM).
Consider `CCCn1c(CN2CCN(c3cc4c(cc3F)c(=O)c(C(=O)O)cn4C3CC3)CC2)nc2ccccc21`, for which the minimum inhibitory concentration (MIC) worked out at 4 µg/mL (≈ 7.94 µM).
Compound `CCCCCCCCCCCCCCCCCCn1c(CN2CCN(c3cc4c(cc3F)c(=O)c(C(=O)O)cn4C3CC3)CC2)nc2ccccc21` showed an MIC of 16 µg/mL (≈ 22.4 µM).

System in another test: not listed separately
The test can be described thus: Antibacterial activity against Bacillus proteus ATCC 13315 by micro broth dilution method. It counts as functional.
Conditions: not given
A general note: Broth dilution looks for growth in wells or tubes with falling amounts of substance.
In turn, `O=C(O)c1cn(C2CC2)c2cc(N3CCN(Cc4nc5ccccc5n4Cc4ccc([N+](=O)[O-])cc4)CC3)c(F)cc2c1=O` returned an MIC of 8 µg/mL (≈ 13.4 µM).
Compound `CCCn1c(CN2CCN(c3cc4c(cc3F)c(=O)c(C(=O)O)cn4C3CC3)CC2)nc2ccccc21` registered an MIC of 32 µg/mL (≈ 63.5 µM). This MIC lies about 4-fold higher than the previous one.
`CCCCCCCCCCCCCCCCCCn1c(CN2CCN(c3cc4c(cc3F)c(=O)c(C(=O)O)cn4C3CC3)CC2)nc2ccccc21`: the minimum inhibitory concentration (MIC) was 64 µg/mL (≈ 89.6 µM). This MIC is about 2-fold higher than that of the compound before.

Another test has as its system Escherichia coli. The experiment in a line: Antibacterial activity against Escherichia coli JM109 by micro broth dilution method. The format is functional.
Conditions: not given
Take `O=C(O)c1cn(C2CC2)c2cc(N3CCN(Cc4nc5ccccc5n4Cc4ccc([N+](=O)[O-])cc4)CC3)c(F)cc2c1=O`: inhibition of growth (MIC) required 8 µg/mL (≈ 13.4 µM).
In the case of `CCCn1c(CN2CCN(c3cc4c(cc3F)c(=O)c(C(=O)O)cn4C3CC3)CC2)nc2ccccc21`, 4 µg/mL (≈ 7.94 µM) was the least that counted as inhibitory (MIC).
Same read-out and setting: as for `CCCCCCCCCCCCCCCCCCn1c(CN2CCN(c3cc4c(cc3F)c(=O)c(C(=O)O)cn4C3CC3)CC2)nc2ccccc21`, the figure is 128 µg/mL (≈ 179 µM).

For a further test, the system named is Bacillus spizizenii. The test can be described thus: Antibacterial activity against Bacillus subtilis ATCC 6633 by micro broth dilution method. It counts as functional.
Conditions: not given
`O=C(O)c1cn(C2CC2)c2cc(N3CCN(Cc4nc5ccccc5n4Cc4ccc([N+](=O)[O-])cc4)CC3)c(F)cc2c1=O` yielded an MIC of 4 µg/mL (≈ 6.7 µM).
The same measure, in the same setting: as for `CCCn1c(CN2CCN(c3cc4c(cc3F)c(=O)c(C(=O)O)cn4C3CC3)CC2)nc2ccccc21`, the figure is 32 µg/mL (≈ 63.5 µM); as for `CCCCCCCCCCCCCCCCCCn1c(CN2CCN(c3cc4c(cc3F)c(=O)c(C(=O)O)cn4C3CC3)CC2)nc2ccccc21`, 64 µg/mL (≈ 89.6 µM).

System in a further test: not listed separately
The test can be described thus: Antifungal activity against Candida mycoderma ATCC 9888 after 24 hrs by micro broth dilution method. Particulars: Candida vini. It counts as functional.
`O=C(O)c1cn(C2CC2)c2cc(N3CCN(Cc4nc5ccccc5n4Cc4ccc([N+](=O)[O-])cc4)CC3)c(F)cc2c1=O`: the MIC80 stood at 4 µg/mL (≈ 6.7 µM).
Same read-out and setting: the value for `CCCn1c(CN2CCN(c3cc4c(cc3F)c(=O)c(C(=O)O)cn4C3CC3)CC2)nc2ccccc21` was 0.5 µg/mL (≈ 0.993 µM); that for `CCCCCCCCCCCCCCCCCCn1c(CN2CCN(c3cc4c(cc3F)c(=O)c(C(=O)O)cn4C3CC3)CC2)nc2ccccc21` was 64 µg/mL (≈ 89.6 µM).

The subject of the next test is Cyberlindnera jadinii. The test can be described thus: Antifungal activity against Candida utilis ATCC 9950 after 24 hrs by micro broth dilution method. It counts as functional. To be noted: Williopsis jadinii, ATCC 9950, 24 h.
Regarding `O=C(O)c1cn(C2CC2)c2cc(N3CCN(Cc4nc5ccccc5n4Cc4ccc([N+](=O)[O-])cc4)CC3)c(F)cc2c1=O`, the MIC80 came out at 2 µg/mL (≈ 3.35 µM).
Same read-out and setting: as for `CCCn1c(CN2CCN(c3cc4c(cc3F)c(=O)c(C(=O)O)cn4C3CC3)CC2)nc2ccccc21`, the figure is 0.5 µg/mL (≈ 0.993 µM); as for `CCCCCCCCCCCCCCCCCCn1c(CN2CCN(c3cc4c(cc3F)c(=O)c(C(=O)O)cn4C3CC3)CC2)nc2ccccc21`, 128 µg/mL (≈ 179 µM).

The next test concerns Staphylococcus aureus. The test can be described thus: Antibacterial activity against Staphylococcus aureus ATCC 25923 by micro broth dilution method. It counts as functional.
Conditions: not given
In turn, `O=C(O)c1cn(C2CC2)c2cc(N3CCN(Cc4nc5ccccc5n4Cc4ccc([N+](=O)[O-])cc4)CC3)c(F)cc2c1=O` had an MIC of 4 µg/mL (≈ 6.7 µM).
`CCCn1c(CN2CCN(c3cc4c(cc3F)c(=O)c(C(=O)O)cn4C3CC3)CC2)nc2ccccc21` had a minimum inhibitory concentration (MIC) of 32 µg/mL (≈ 63.5 µM).
In turn, `CCCCCCCCCCCCCCCCCCn1c(CN2CCN(c3cc4c(cc3F)c(=O)c(C(=O)O)cn4C3CC3)CC2)nc2ccccc21` returned an MIC of 64 µg/mL (≈ 89.6 µM).

The next test deals with Shigella dysenteriae. The experiment in a line: Antibacterial activity against Shigella dysenteriae by micro broth dilution method. It counts as functional.
Conditions: not given
Take `O=C(O)c1cn(C2CC2)c2cc(N3CCN(Cc4nc5ccccc5n4Cc4ccc([N+](=O)[O-])cc4)CC3)c(F)cc2c1=O`: the minimum inhibitory concentration (MIC) was 8 µg/mL (≈ 13.4 µM).
In the case of `CCCn1c(CN2CCN(c3cc4c(cc3F)c(=O)c(C(=O)O)cn4C3CC3)CC2)nc2ccccc21`, the MIC was 4 µg/mL (≈ 7.94 µM).
The same measure, in the same setting: as for `CCCCCCCCCCCCCCCCCCn1c(CN2CCN(c3cc4c(cc3F)c(=O)c(C(=O)O)cn4C3CC3)CC2)nc2ccccc21`, the figure is 64 µg/mL (≈ 89.6 µM).

For the next test, the system named is Aspergillus flavus. The test can be described thus: Antifungal activity against Aspergillus flavus ATCC 204304 after 24 hrs by micro broth dilution method. The format is functional. Particulars: ATCC 204304, 24 h.
For `O=C(O)c1cn(C2CC2)c2cc(N3CCN(Cc4nc5ccccc5n4Cc4ccc([N+](=O)[O-])cc4)CC3)c(F)cc2c1=O`, the MIC80 turned out to be 1 µg/mL (≈ 1.68 µM).
Still for that read-out and setting: as for `CCCn1c(CN2CCN(c3cc4c(cc3F)c(=O)c(C(=O)O)cn4C3CC3)CC2)nc2ccccc21`, the figure is 0.5 µg/mL (≈ 0.993 µM); as for `CCCCCCCCCCCCCCCCCCn1c(CN2CCN(c3cc4c(cc3F)c(=O)c(C(=O)O)cn4C3CC3)CC2)nc2ccccc21`, 64 µg/mL (≈ 89.6 µM).

In a further test the test system is Candida albicans. The test can be described thus: Antifungal activity against Candida albicans ATCC 10231 after 24 hrs by micro broth dilution method. The format is functional. To be noted: ATCC 10231, 24 h.
`O=C(O)c1cn(C2CC2)c2cc(N3CCN(Cc4nc5ccccc5n4Cc4ccc([N+](=O)[O-])cc4)CC3)c(F)cc2c1=O`: the MIC80 came to 2 µg/mL (≈ 3.35 µM).
The same measure, in the same setting: the value for `CCCn1c(CN2CCN(c3cc4c(cc3F)c(=O)c(C(=O)O)cn4C3CC3)CC2)nc2ccccc21` was 0.25 µg/mL (≈ 0.496 µM); that for `CCCCCCCCCCCCCCCCCCn1c(CN2CCN(c3cc4c(cc3F)c(=O)c(C(=O)O)cn4C3CC3)CC2)nc2ccccc21` was 128 µg/mL (≈ 179 µM).

The test system of another test is Staphylococcus aureus. The experiment in a line: Antibacterial activity against methicillin-resistant Staphylococcus aureus N315 by micro broth dilution method. The format is functional.
Conditions: not given
`O=C(O)c1cn(C2CC2)c2cc(N3CCN(Cc4nc5ccccc5n4Cc4ccc([N+](=O)[O-])cc4)CC3)c(F)cc2c1=O` showed a minimal inhibitory concentration (MIC) of 2 µg/mL (≈ 3.35 µM).
Regarding `CCCn1c(CN2CCN(c3cc4c(cc3F)c(=O)c(C(=O)O)cn4C3CC3)CC2)nc2ccccc21`, 2 µg/mL (≈ 3.97 µM) was the least that counted as inhibitory (MIC).
`CCCCCCCCCCCCCCCCCCn1c(CN2CCN(c3cc4c(cc3F)c(=O)c(C(=O)O)cn4C3CC3)CC2)nc2ccccc21`: 64 µg/mL (≈ 89.6 µM) was the least that counted as inhibitory (MIC). This MIC is about 32-fold higher than that of the compound before.

In another test the test system is Micrococcus luteus. The experiment in a line: Antibacterial activity against Micrococcus luteus ATCC 4698 by micro broth dilution method. It counts as functional. To be noted: NCTC 2665.
Compound `O=C(O)c1cn(C2CC2)c2cc(N3CCN(Cc4nc5ccccc5n4Cc4ccc([N+](=O)[O-])cc4)CC3)c(F)cc2c1=O` gave a minimum inhibitory concentration (MIC) of 8 µg/mL (≈ 13.4 µM).
On the same count and under the same terms, the value for `CCCn1c(CN2CCN(c3cc4c(cc3F)c(=O)c(C(=O)O)cn4C3CC3)CC2)nc2ccccc21` was 1 µg/mL (≈ 1.99 µM).
Same read-out and setting: the value for `CCCCCCCCCCCCCCCCCCn1c(CN2CCN(c3cc4c(cc3F)c(=O)c(C(=O)O)cn4C3CC3)CC2)nc2ccccc21` was 128 µg/mL (≈ 179 µM).

A further test has as its system Escherichia coli. The experiment in a line: Antibacterial activity against Escherichia coli DH52 by micro broth dilution method. It counts as functional.
Conditions: not given
Turning to `O=C(O)c1cn(C2CC2)c2cc(N3CCN(Cc4nc5ccccc5n4Cc4ccc([N+](=O)[O-])cc4)CC3)c(F)cc2c1=O`, inhibition of growth (MIC) required 16 µg/mL (≈ 26.8 µM).
Same read-out and setting: the value for `CCCn1c(CN2CCN(c3cc4c(cc3F)c(=O)c(C(=O)O)cn4C3CC3)CC2)nc2ccccc21` was 1 µg/mL (≈ 1.99 µM); that for `CCCCCCCCCCCCCCCCCCn1c(CN2CCN(c3cc4c(cc3F)c(=O)c(C(=O)O)cn4C3CC3)CC2)nc2ccccc21` was 128 µg/mL (≈ 179 µM).

The test system of the next test is Pseudomonas aeruginosa. The experiment in a line: Antibacterial activity against Pseudomonas aeruginosa ATCC 27853 by micro broth dilution method. The format is functional.
Conditions: not given
For the compound `O=C(O)c1cn(C2CC2)c2cc(N3CCN(Cc4nc5ccccc5n4Cc4ccc([N+](=O)[O-])cc4)CC3)c(F)cc2c1=O`, the minimum inhibitory concentration (MIC) was 4 µg/mL (≈ 6.7 µM).
In turn, `CCCn1c(CN2CCN(c3cc4c(cc3F)c(=O)c(C(=O)O)cn4C3CC3)CC2)nc2ccccc21` came in with an MIC of 1 µg/mL (≈ 1.99 µM).
The compound `CCCCCCCCCCCCCCCCCCn1c(CN2CCN(c3cc4c(cc3F)c(=O)c(C(=O)O)cn4C3CC3)CC2)nc2ccccc21` gave a minimum inhibitory concentration (MIC) of 32 µg/mL (≈ 44.8 µM).

Another test deals with Saccharomyces cerevisiae. The test can be described thus: Antifungal activity against Saccharomyces cerevisiae ATCC 9763 after 24 hrs by micro broth dilution method. Particulars: ATCC 9763, 24 h. It counts as functional.
Compound `O=C(O)c1cn(C2CC2)c2cc(N3CCN(Cc4nc5ccccc5n4Cc4ccc([N+](=O)[O-])cc4)CC3)c(F)cc2c1=O` came in with an MIC80 of 1 µg/mL (≈ 1.68 µM).
On the same count and under the same terms, as for `CCCn1c(CN2CCN(c3cc4c(cc3F)c(=O)c(C(=O)O)cn4C3CC3)CC2)nc2ccccc21`, the figure is 0.5 µg/mL (≈ 0.993 µM); as for `CCCCCCCCCCCCCCCCCCn1c(CN2CCN(c3cc4c(cc3F)c(=O)c(C(=O)O)cn4C3CC3)CC2)nc2ccccc21`, 64 µg/mL (≈ 89.6 µM).

What is called MIC is the least concentration at which growth counts as inhibited. Higher therefore signals a need for much substance. The term MIC80 denotes the lowest concentration that inhibits either 80% of growth or 80% of the strains tested, depending on the study.
